{
  "source": "patent US10507212B2",
  "about": "“Method for use of homopiperazinium compounds in the treatment of cancer” (UNIVERSITÉ LAVAL, priority 2014, dated 2019)",
  "key": {"[1]": {"system": "A549 adenocarcinoma cell line", "test": "Cell proliferation assay, A549 (MTT)", "conditions": "for IC50: Tosylate", "experimental": "(§1) In vitro experiments were conducted on four cancer cell lines: the A549 adenocarcinoma cell line, the H520 squamous cell carcinoma the H82 small cell lung carcinoma and Calu 3 lung adenocarcinoma. The A549 tumor cells, were plated at a density of 1.5×10^4 cells per mL and let to adhere on 96-well microplates in F12K cell culture medium enriched with 10% fetal calf serum (FCS). The H520, H82 and Calu 3 tumor cells were plated at a density of 5×10^4 cells per mL in RPMI+10% FCS. After 24 h in culture, the medium was changed and cells were exposed to ASM-024 at concentrations ranging from 10^−7M to 10^−3M (FIGS. 1A-1C). After 3 and 6 days in culture, cell growth was quantified using the MTT colorimetric assay (M2128, Sigma) at 575-690 nm or the Cell Titer fluorescence assay (G8080, Promega) at 560/590 nm.\n(§2) In an another set of experiments, a series of 16 other homopiperazinium compounds, in addition to ASM-024, were tested for their anti-proliferative effect on the four tumor cell lines described above after up to 6 days in culture at concentrations of 10^-7M to 10^-3M. (FIGS. 4A-4E) Cell growth was quantified using the MTT colorimetric assay for the A-549, H520 and Calu 3 cell lines and the CellTiter Fluorescence assay.for the H82 tumor cell line These are established method of determining viable cell number in proliferation studies."}, "[2]": {"system": "H520 squamous cell carcinoma", "test": "Cell proliferation assay, H520 (MTT)", "type": "cell-based", "conditions": "for IC50: Tosylate", "experimental": "as §1, §2"}, "[3]": {"system": "H82 small cell lung carcinoma", "test": "Cell proliferation assay, H82 (CellTiter fluorescence)", "type": "cell-based", "conditions": "for IC50: Homo sapiens", "experimental": "as §1, §2"}, "[4]": {"system": "Calu 3 lung adenocarcinoma", "test": "Cell proliferation assay, Calu 3 (MTT)", "type": "cell-based", "conditions": "Homo sapiens", "experimental": "as §1, §2"}, "SK-BR-3": {"system": "SK-BR-3", "test": "Anti-proliferative MTT assay, SK-BR-3", "type": "cell-based", "conditions": "Homo sapiens", "experimental": "(§3) The effect of ASM-024 on the growth of MCF7, SK-BR-3, MDA-MB-231, BT-474 (mammary adenocarcinomas), SK-OV/3 (ovary adenocarcinoma), PC3 (prostate adenocarcinoma) SK-MEL-28(skin melanoma) and C6 (tumor cell glioma) was evaluated. Cells were cultured in RPMI medium and incubated with different concentrations of ASM-024. Cell proliferation was measured on days 3 and 6 by the MTT colorimetric assay. Absorbance at 576-690 nm was analyzed with a microplate reader and expressed as optical density (OD) and as a percentage of the value of corresponding untreated cells. The IC50 was determined as the drug concentration required to inhibit cell growth by 50% from a plot of percent cell viability from control untreated cells versus treated cells."}, "MDA-MB-231": {"system": "MDA-MB-231", "test": "Anti-proliferative MTT assay, MDA-MB-231", "type": "cell-based", "conditions": "Homo sapiens", "experimental": "as §3\nFIGS. 5A and 5B illustrate the observed results for the MDA-MB-231 mammary/breast gland adenocarcinoma assay. Cells were incubated with the dose drug shown and growth measured at the days indicated. In FIG. 5A the data is expressed as optical density (OD) and in FIG. 5B as a percentage of the value of corresponding untreated cells. P<0.05 compared to control at same day by Student t-test"}, "BT-474": {"system": "BT-474", "test": "Anti-proliferative MTT assay, BT-474", "type": "cell-based", "conditions": "Homo sapiens", "experimental": "as §3"}, "SK-OV/3": {"system": "SK-OV/3", "test": "Anti-proliferative MTT assay, SK-OV/3", "type": "cell-based", "conditions": "Homo sapiens", "experimental": "as §3"}, "SK-MEL-28": {"system": "SK-MEL-28", "test": "Anti-proliferative MTT assay, SK-MEL-28", "type": "cell-based", "conditions": "Homo sapiens", "experimental": "as §3"}, "C6": {"system": "C6", "test": "Anti-proliferative MTT assay, C6", "type": "cell-based", "conditions": "Rattus norvegicus", "experimental": "as §3"}, "PC3": {"system": "PC3", "test": "Anti-proliferative MTT assay, PC3", "type": "cell-based", "conditions": "Homo sapiens", "experimental": "as §3"}, "A549 lung adenocarcinoma": {"system": "A549 lung adenocarcinoma", "test": "In vitro combination treatment with cisplatin or taxol, A549 (MTT)", "type": "cell-based, human", "conditions": "ASM-024 alone, 3 days of drug treatment", "experimental": "The concomitant effect of ASM-024 and cisplatin or taxol on the proliferation of A549 lung adenocarcinoma and MCF7 breast cancer adenocarcinoma cells was assessed in vitro.\nA549 cells (3.0×10^3cells/well) were first cultured with 10% FBS in F12K media and MCF7 cells (10×10^3 cells/well) with 10% FBS in EMEM media for 24 hours to allow cells to adhere to the plate at 37° C. in a humidified incubator with 5% CO2. The next day, the media was replaced in medium containing appropriate drug concentrations […] for an additional 72 hours. Cell viability was quantified using the MTT colorimetric assay (M2128, Sigma) at 575-690 nm."}, "[5]": {"system": "A549 human lung carcinoma cells", "test": "In vivo antitumor assay, A549 xenograft in Balb/c nude mice (Example 29)", "conditions": "day 49; ASM-024 45 mg/kg s.c. daily day 14-38; taxol 10 mg/kg i.p. days 21, 28, 35; cisplatin 2.5 mg/kg i.p. days 28, 35", "experimental": "For the in vivo antitumor assay, A549 human lung carcinoma cells (3.5×106) in 50% F12K medium (Matrigel) were implanted subcutaneously in the flank of Balb/c nude mice (nu/nu, Charles River) and allowed to grow for 14 days. ASM-024 was administered daily by subcutaneous delivery at the dose of 45 mg/kg from day 14 to day 38 post cell inoculation. Taxol was administrated intraperitoneally at the dose of 10 mg/kg on days 21, 28 and 35. Cisplatin was administrated intraperioneally at the dose of 2.5 mg/kg on days 28 and 35. From day 14 to day 49, tumor length and width were measured once or twice a week with a caliper and tumor volume calculated according to the formula Volume=(width2×length)/2."}},
  "note": "Where two headings read alike, the source gives them in different places.",
  "data": [
    {"smiles": "CC[N+]1(CC)CCCN(c2ccccc2)CC1.Cc1ccc(S(=O)(=O)[O-])cc1", "note": "[ASM-024, 1,1-Diethyl-4-phenyl-homopiperazinium Tosylate]", "values": [
      {"measurement": "cell proliferation / cell growth inhibition (in words)", "setting": "[1]; A549, day 3 and day 6, text on figures", "result": "dose-dependent decrease in cell proliferation"},
      {"measurement": "IC50", "setting": "[1]; read-out: IC50 Day 3, A549, day 3 in culture", "result": "56 ± 20", "unit": "µM"},
      {"measurement": "IC50", "setting": "[1]; read-out: IC50 Day 6, A549, day 6 in culture", "result": "59 ± 21", "unit": "µM"},
      {"measurement": "cell proliferation / cell growth inhibition (in words)", "setting": "[2]; H520, day 3 and day 6, text on figures", "result": "dose-dependent decrease in cell proliferation"},
      {"measurement": "IC50", "setting": "[2]; H520, day 3 in culture, read-out: IC50 Day 3", "result": "468 ± 287", "unit": "µM"},
      {"measurement": "IC50", "setting": "[2]; H520, day 6 in culture, read-out: IC50 Day 6", "result": "257 ± 257", "unit": "µM"},
      {"measurement": "cell proliferation / cell growth inhibition (in words)", "setting": "[3]; H82, day 3 and day 6, text on figures", "result": "dose-dependent decrease in cell proliferation"},
      {"measurement": "IC50", "setting": "[3]; NCI-H82, 72 h, H82, day 3 in culture, read-out: IC50 Day 3", "result": "314 ± 205", "unit": "µM"},
      {"measurement": "IC50", "setting": "[3]; NCI-H82, 144 h, H82, day 6 in culture, read-out: IC50 Day 6", "result": "218 ± 76", "unit": "µM"},
      {"measurement": "IC50", "setting": "[4]; 72 h, Calu 3, day 3 in culture, read-out: IC50 Day 3", "result": "685 ± 320", "unit": "µM"},
      {"measurement": "IC50", "setting": "[4]; 144 h, Calu 3, day 6 in culture, read-out: IC50 Day 6", "result": "192 ± 217", "unit": "µM"},
      {"measurement": "IC50", "setting": "SK-BR-3; 72 h, SK-BR-3, day 3, read-out: IC50 Day 3", "result": "> 1000", "unit": "µM"},
      {"measurement": "IC50", "setting": "SK-BR-3; 144 h, SK-BR-3, day 6, read-out: IC50 Day 6", "result": "197 ± 67", "unit": "µM"},
      {"measurement": "IC50", "setting": "MDA-MB-231; 72 h, MDA-MB-231, day 3, read-out: IC50 Day 3", "result": "> 1000", "unit": "µM"},
      {"measurement": "IC50", "setting": "MDA-MB-231; 144 h, MDA-MB-231, day 6, read-out: IC50 Day 6", "result": "661 ± 115", "unit": "µM"},
      {"measurement": "IC50", "setting": "BT-474; 72 h, BT-474, day 3, read-out: IC50 Day 3", "result": "> 1000", "unit": "µM"},
      {"measurement": "IC50", "setting": "BT-474; 144 h, BT-474, day 6, read-out: IC50 Day 6", "result": "644 ± 230", "unit": "µM"},
      {"measurement": "IC50", "setting": "SK-OV/3; 72 h, SK-OV/3, day 3, read-out: IC50 Day 3", "result": "> 600", "unit": "µM"},
      {"measurement": "IC50", "setting": "SK-OV/3; 144 h, SK-OV/3, day 6, read-out: IC50 Day 6", "result": "618 ± 125", "unit": "µM"},
      {"measurement": "IC50", "setting": "SK-MEL-28; 72 h, SK-MEL-28, day 3, read-out: IC50 Day 3", "result": "> 800", "unit": "µM"},
      {"measurement": "IC50", "setting": "SK-MEL-28; 144 h, SK-MEL-28, day 6, read-out: IC50 Day 6", "result": "259 ± 63", "unit": "µM"},
      {"measurement": "IC50", "setting": "C6; 72 h, C6, day 3, read-out: IC50 Day 3", "result": "353 ± 52", "unit": "µM"},
      {"measurement": "IC50", "setting": "C6; 144 h, C6, day 6, read-out: IC50 Day 6", "result": "186 ± 27", "unit": "µM"},
      {"measurement": "IC50", "setting": "PC3; PC-3, 72 h, PC3, day 3, read-out: IC50 Day 3", "result": "> 700", "unit": "µM"},
      {"measurement": "IC50", "setting": "PC3; PC-3, 144 h, PC3, day 6, read-out: IC50 Day 6", "result": "176 ± 29", "unit": "µM"},
      {"measurement": "A549 cell growth inhibition", "setting": "A549 lung adenocarcinoma", "result": "dose-dependent growth inhibition of cell proliferation"},
      {"measurement": "A549 human carcinoma tumor growth (tumor volume)", "setting": "[5]", "result": "decrease in A549 human carcinoma tumor growth"}
    ]}
  ]
}
